Measured values from publication PMC10973027 (Molecular Imaging and Biology, 2023).
Where “and” joins values, the source holds several entries; their conditions need not be identical. Equal entries are not always repeated.

Legend:
[1] = background statement, no reference given; cited from earlier work
[2] = Radio-HPLC metabolite analysis of mouse brain homogenate and plasma after IV radiotracer; assay type: in vivo, male C57 black 6 mice; settings: for polar metabolites in mouse brain: radio-HPLC column eluent front ~1.5-2 min; for % Parent Plasma / % Parent Brain: individual mice; for % Parent Brain: brain homogenate; for share of total brain activity corresponding to the parent / share of total plasma activity corresponding to the parent: approximate
Protocol: In this preclinical study, two radiolabeling positions were investigated, [^11C-N-CH3]UCB2713 and [^11C]carbonyl UCB2713 ([^11C-CO]UCB2713). The radiolabeling of [^11C-N-CH3]UCB2713 was performed by N-methylation of the corresponding desmethyl precursor with [^11C]methyl iodide and radiolabeling of [^11C-CO]UCB2713 was performed by [^11C]aminocarbonylation of the iodo precursor and the amino precursor with [^11C]carbon monoxide in the presence of Pd(π-cinnamyl) chloride dimer and Xantphos (4,5-bis(diphenylphosphino)-9,9-dimethylxanthene) (Fig. 1b). For additional information on the precursor molecules and radiolabeling methods, see the electronic supplement. A high-performance liquid chromatography (HPLC) metabolite analysis method was developed to quantify the ratio of [^11C-N-CH3]UCB2713 and other unidentified metabolites in plasma and brain homogenate samples. Relative quantification was used to provide the ratio of parent to metabolite in these samples.
Preclinical experiments were conducted on male C57 black 6 mice (N = 10). In vivo experiments were performed on 3 mice and included a PET scan of the brain; ex vivo experiments were performed on all 10 mice and included samples of brain homogenate.
[11C]UCB2713 in vivo/ex vivo Evaluation
Administration of Radioligand and Collecting Samples
Each mouse received an intravenous (IV) bolus injection of [11C]UCB2713 via the jugular vein. The mean (standard deviation [SD]) mass of each radiotracer dose was 1.54 (± 1.03) µg; with a radioactive dose of 17.26 (± 10.88) MBq. At pre-defined time points (40, 60, and 90 min) post-administration of [11C]UCB2713, each mouse was euthanized by exsanguination, followed by cervical dislocation, with blood samples collected in heparin tubes and the brain dissected.
Brain Sample Processing and Preparation of Sample for Analysis
A sample of brain homogenate (1:1, brain:water) was assessed for radioactivity using a γ-counter. Brain homogenate was extracted with a ratio of 1:2 (homogenate:acetonitrile); a ratio of 1:1 was used for the first two animals. The mixture was vortexed for 3 min followed by centrifugation (12000 x g) for 5 min at room temperature. The extraction efficiency was […]
Brain extraction efficiency = counts per minute (CPM) in supernatant (brain extract)/CPM in brain homogenate extracted
To identify the parent-retention time based on the ultraviolet (UV) chromatogram, 20 µL of a solution containing UCB2713 was added to the supernatant (350 µL), followed by 350 µL of 50 mM ammonium formate (adjusted to pH 8), then 0.5 mL of the resulting solution was injected onto the high-performance liquid chromatography (HPLC) column.
Two aliquots of this solution were counted to determine the HPLC recovery as follows:
Recovery efficiency % = = i=1 ∙100 […]
Where “CPM(aliq.)” is the radioactivity measured for the HPLC brain homogenate samples aliquot, “Valiq.” Is the volume of each aliquot , “CPM fi” is the count per minute for fraction “i” and ∑ 30 is the sum of 30 fractions.
Mouse blood samples were centrifuged at 7500 x g for 3 min at 4 °C and plasma was extracted with a ratio of 1:1 (plasma:acetonitrile). The plasma extraction efficiency was […]
Plasma extraction efficiency = CPM in supernatant (plasma extract)/CPM in plasma […]
Samples were prepared as described above for the brain, and two aliquots of solution were counted to determine the HPLC column recovery.
HPLC Procedure and Data Analysis
The HPLC system used a pump, degasser, UV-Vis/Diode Array Detector, and fraction collector. HPLC conditions used were 55% acetonitrile and 45% 100 mM ammonium formate (Method 1), or 48% acetonitrile and 52% 100 mM ammonium formate (adjusted to pH 8; Method 2) as the mobile phase at 5 mL/min and an Agilent XDB-C18 semi-preparative […]
(§1) column (5 micron, 250 x 9.4 mm; Method 2); 30 sample fractions (Method 1) and 36 sample fractions (Method 2) were collected over either a 10- or 12-min run.
A radio-chromatogram was reconstructed from the HPLC fractions collected and the […]

[3] = PET-CT imaging of the mouse brain (time-activity curve, SUV); assay type: in vivo, male C57 black 6 mice; settings: at 60 min
Protocol: Preclinical experiments were conducted on male C57 black 6 mice (N = 10). In vivo experiments were performed on 3 mice and included a PET scan of the brain; ex vivo experiments were performed on all 10 mice and included samples of brain homogenate. […]
as §1
A radio-chromatogram was reconstructed from the HPLC fractions collected and the percent of unchanged [11C]UCB2713 was calculated:
[11C]UCB2713 parent fraction = i=n i
Where “cCPM fi” is the radioactivity measured for the HPLC fraction, corrected for the background radioactivity. “n” is first and “m” the last HPLC fraction containing the parent compound (1 ≤ n, m ≤ 30 or 36 [where 30 or 36 are the total number of fractions collected]).
PET-Computed Tomography (CT) Scanning and Image Reconstruction
Three mice were euthanized at the 90 min time point following radioligand injection. Prior to euthanization, these mice were scanned by PET-CT. A dynamic PET scan (Siemens Inveon DPET with docked multi-modality CT scanner) was acquired for each anesthetized mouse following IV administration of [11C]UCB2713. PET images were acquired in list mode and reconstructed with increasing time frames over the duration of the scan to characterize radiotracer kinetics. […]

[4] = Phase 1 PET-CT brain biodistribution study TM0017 (VT, K1, k2); assay type: in vivo, human
Protocol: A sample size of 2–10 participants was considered sufficient to meet the objectives, whilst limiting radiation exposure.
The preparation of radiopharmaceuticals and execution of PET-CT scans was performed by radiochemists, physicians, and technologists of Invicro (London, UK). Following local anesthesia, a catheter was inserted into the radial artery by an experienced physician; two venous catheters were also inserted. […] Upon administration, dynamic scanning started immediately and continued for 90 min.
(§2) Arterial input function data were acquired and processed for all PET scans.
Anatomical regions of interest (ROI) were defined via nonlinear deformation of a template MR image and associated neuroanatomical atlas, to match individual participants’ MR images. These ROI included, but were not limited to: parietal lobe, occipital lobe, frontal lobe, temporal lobe, striatum, cerebellum, thalamus, and the brain stem. Participants’ PET images were registered to their MR images, enabling the individualized ROI to be applied to the dynamic emission data to generate regional time activity curves (TACs). For additional information on the generation of regional TACs, see the electronic supplement.
Phase 1 PET Study in Healthy Male Participants (TM0017)
The TAC and total plasma data were fitted to a single compartment model to determine the influx and efflux constants K1 and k2. Because the plasma free fraction estimate is imprecise, we elected to fit the model using the total (free and bound) arterial concentration input function. The parameters of this model are related to the analogous parameters which would be estimated using an accurate estimate of the free arterial concentration using the equations below. We were able therefore to determine and present the K1 and estimated whole brain total distribution volume (VT), with relatively good repeatability between patients, and the equations below could also be used to relate the overall mean estimates back to the ideal total brain to free plasma minzasolmin (V’T) and unidirectional extraction Eu which can be calculated using the free fraction. The blood volume in the model was fixed at 5%. In this model, radiotracer which is free in tissue, non-specifically bound and specifically bound (i.e. to a target of interest) are lumped together in a single compartment, and so interchange between those states is assumed to be rapid.
The arterial input function used represents the total concentration of parent radiotracer in plasma, with no correction for plasma protein binding and the fitted and observed K1 from this model is lower than the rate of uptake from the free plasma concentration (K’1):
To calculate the Eu from the observed K1 from the model we then need to combine […]
The partition coefficient between total brain and total plasma concentration was determined from the fitted K1 and k2 parameters: […]
and the ratio of total concentration in brain to free concentration in plasma ( V’T) could be […]
Supplemental Fig. 1. Example of HPLC chromatograms (radioactive trace, top; UV trace, bottom) obtained during HPLC analysis of [11C-N-CH3]UCB2713 dose. The time delay

[5] = Arterial plasma radio-metabolite analysis during PET scans (TM0017); assay type: in vivo, human
Source text: as §2

[6] = Safety and tolerability in TM0017 (TEAEs, ECG, vital signs); settings: TM0017, N = 4, IV radiotracer (≤ 10 µg)
Protocol: Other safety variables recorded include changes in 12-lead electrocardiogram (ECG) assessment and changes in vital signs (heart rate, systolic blood pressure, diastolic blood pressure, respiratory rate, and body temperature). Vital signs were measured in supine position following 5 min of rest and clinically significant abnormalities (according to the investigator) were recorded as an AE. All ECG recordings were performed following 5 min of rest in the supine position, in triplicate, with ≥ 1 min between each recording. If any clinically significant abnormalities occurred, an ECG data specialist was to review the recordings.

[7] = mouse, 40 min post-administration
[8] = Cerebellum, Scan 2 (after oral minzasolmin 360 mg)
[9] = Cerebral white matter, Scan 1 (baseline)
[10] = Cerebral white matter, Scan 2 (after oral minzasolmin 360 mg)
[11] = Frontal lobe, Scan 1 (baseline)
[12] = Frontal lobe, Scan 2 (after oral minzasolmin 360 mg)
[13] = Gray matter, Scan 2 (after oral minzasolmin 360 mg)
[14] = Occipital lobe, Scan 1 (baseline)
[15] = Occipital lobe, Scan 2 (after oral minzasolmin 360 mg)
[16] = Parietal lobe, Scan 1 (baseline)
[17] = Parietal lobe, Scan 2 (after oral minzasolmin 360 mg)
[18] = Striatum, Scan 2 (after oral minzasolmin 360 mg)
[19] = Temporal lobe, Scan 1 (baseline)
[20] = Temporal lobe, Scan 2 (after oral minzasolmin 360 mg)
[21] = mixed effects model, after oral minzasolmin 360 mg

## CCCCC(Cc1c[nH]c2ccccc12)NC(=O)c1cnc(N2CCN(C)CC2)s1 (stereo not drawn) [UCB2713]
[1]
  rate of metabolism compared with the other enantiomer: higher rate of metabolism

## CCCC[C@@H](Cc1c[nH]c2ccccc12)N[11C](=O)c1cnc(N2CCN(C)CC2)s1 [[^11C-CO]UCB2713]
[2]; in-vivo metabolism studies in mice
  parent fraction in brain tissue: > 95%
[2]
  polar metabolites in mouse brain: no polar metabolite present in the mouse brain

## CCCC[C@@H](Cc1c[nH]c2ccccc12)NC(=O)c1cnc(N2CCN([11CH3])CC2)s1 [[^11C-N-CH3]UCB2713]
[2]; 40 min post IV administration
  % Parent Plasma: 34.3% and 27.0% and 29.3% and 30.8%
  % Parent Brain: 62.0% and 61.1% and 56.0% and 58.2%
[2]; 60 min post IV administration
  % Parent Plasma: 30.6% and 19.5% and 24.6%
  % Parent Brain: 52.6% and 40.9% and 50.3%
[2]; 90 min post IV administration
  % Parent Plasma: 9.7% and 26.0% and 17.7%
  % Parent Brain: 34.7% and 29.7% and 22.1%
[2]; male, C57 black 6, mouse, brain/plasma, intravenous, 1.54 µg, mouse, 40 min, read-out: ratio (SD) of parent in the brain versus parent in plasma
  Kp at 40 min: 0.77 ± 0.11
[2]; male, C57 black 6, mouse, brain/plasma, intravenous, 1.54 µg, mouse, 60 min, read-out: ratio (SD) of parent in the brain versus parent in plasma
  Kp at 60 min: 0.73 ± 0.06
[2]; male, C57 black 6, mouse, brain/plasma, intravenous, 1.54 µg, mouse, 90 min, read-out: ratio (SD) of parent in the brain versus parent in plasma
  Kp at 90 min: 0.79 ± 0.69
[2]; [7]
  share of total brain activity corresponding to the parent: approximately 60%
  share of total plasma activity corresponding to the parent: approximately 30%
[2]; mouse, 90 min
  share of total brain activity corresponding to the parent: approximately 30%
  share of total plasma activity corresponding to the parent: ~20%
[2]
  polar metabolites in mouse brain: significant contribution of brain activity from polar metabolites
[3]
  standard uptake volume (SUV), whole brain: ~ 0.2

## CCCC[C@H](Cc1c[nH]c2ccccc12)NC(=O)c1cnc(N2CCN([11CH3])CC2)s1 [[^11C]minzasolmin]
[4]; Cerebellum, Scan 1 (baseline)
  K1: 0.02 mL/cm^3/min
  VT: 0.522 mL/cm^3
[4]; [8]
  K1: 0.018 mL/cm^3/min
  VT: 0.499 mL/cm^3
[4]; [9]
  K1: 0.008 mL/cm^3/min
  VT: 0.469 mL/cm^3
[4]; [10]
  K1: 0.007 mL/cm^3/min
  VT: 0.523 mL/cm^3
[4]; [11]
  K1: 0.017 mL/cm^3/min
  VT: 0.539 mL/cm^3
[4]; [12]
  K1: 0.014 mL/cm^3/min
  VT: 0.539 mL/cm^3
[4]; Gray matter, Scan 1 (baseline)
  K1: 0.017 mL/cm^3/min
  VT: 0.547 mL/cm^3
[4]; [13]
  K1: 0.015 mL/cm^3/min
  VT: 0.542 mL/cm^3
[4]; [14]
  K1: 0.019 mL/cm^3/min
  VT: 0.548 mL/cm^3
[4]; [15]
  K1: 0.017 mL/cm^3/min
  VT: 0.555 mL/cm^3
[4]; [16]
  K1: 0.017 mL/cm^3/min
  VT: 0.551 mL/cm^3
[4]; [17]
  K1: 0.015 mL/cm^3/min
  VT: 0.574 mL/cm^3
[4]; Scan 1 vs Scan 2
  VT before and after dosing with minzasolmin 360 mg: no difference in VT
[4]; Striatum, Scan 1 (baseline)
  K1: 0.015 mL/cm^3/min
  VT: 0.545 mL/cm^3
[4]; [18]
  K1: 0.013 mL/cm^3/min
  VT: 0.528 mL/cm^3
[4]; [19]
  K1: 0.017 mL/cm^3/min
  VT: 0.566 mL/cm^3
[4]; [20]
  K1: 0.015 mL/cm^3/min
  VT: 0.557 mL/cm^3
[4]; across each participant and all ROI, from total plasma concentrations
  overall mean brain influx rate (K1): 0.015 mL/cm^3/min
[4]; following radiotracer injections
  qualitative assessment of the PET images: distributed throughout the brain
[4]; least squares mean of mixed model over all regions and participants
  mean difference in VT between Scan 1 and Scan 2: -0.008 mL/cm^3
[4]; [21]
  change in K1 after oral dosing: -15.9%
  change in k2 after oral dosing: -9.3%
[5]; human arterial plasma, at 90 min
  radioactivity in plasma attributable to intact parent radiotracer: ~ 50%
[5]; human plasma, up to 30 min
  total parent fraction during the radiotracer brain uptake phase: > 70%
[6]
  Any TEAEs: 3 (75) n (%)
  Deaths: 0 n (%)
  Discontinuations due to TEAEs: 0 n (%)
  Drug-related TEAEs: 0 n (%)
  Serious TEAEs: 0 n (%)
  Severe TEAEs: 0 n (%)
  TEAEs of special interest: 0 n (%)

## CCCC[C@@H](Cc1c[nH]c2ccccc12)N[11C](=O)c1cnc(N2CCNCC2)s1 [desmethyl-[^11C-CO]UCB2713]
[2]; radio-HPLC of brain homogenate after [11C-CO]UCB2713
  amount of desmethyl metabolite observed in mouse brain: ~ 2%
